Tested on: not listed separately
Experiment: Muscle endurance test (treadmill), treatment during pregnancy and/or lactation
Type: in vivo, mice
Details: treated in lactation, 10 mg/Kg/day
Experimental: Muscle Endurance Strengthening and Muscle Function Enhancing Effect
An animal test was performed to confirm muscle endurance strengthening and muscle function enhancing effect of the composition of the present invention. Most muscles are generated in developmental stage. Thus, S14, S46 and S106 (10 mg/Kg/day) were treated to pregnant mice in the period of either pregnancy or lactation or both pregnancy and lactation. Weight gaining and growth rate were not much different between fetuses of the control group and the treatment group. Muscles were observed after removing skin. As a result, muscles of the treatment group were red, unlike the control. ATPase staining and immunostaining were performed. As a result, type I muscle fiber was increased in the treatment group. The role of the changes of the muscle fiber in the enhancement of muscle endurance and muscle function was investigated by using treadmill test. As a result, running time was much extended in the treatment group, compared with the control.

Row | SMILES | increasing rate (treatment group/control group), length [times] | increasing rate (treatment group/control group), time [times]
1 | Cc1cc(SC(Cc2ccccc2)c2ccc(-c3ccc(C(F)(F)F)cc3)nc2)ccc1OCC(=O)O (stereo not shown) [Compound 106] | 1.8 | 1.8
2 | Cc1cc(SC(Cc2ccccc2)c2ccc(-c3ccc(C(F)(F)F)cc3)cc2)ccc1OCC(=O)O (stereo not shown) [Compound S14] | 2.2 | 2.1

Same assay, conditions: treated in pregnancy + lactation, 10 mg/Kg/day

Row | SMILES | increasing rate (treatment group/control group), length [times] | increasing rate (treatment group/control group), time [times]
3 | Cc1cc(SC(Cc2ccccc2)c2ccc(-c3ccc(C(F)(F)F)cc3)nc2)ccc1OCC(=O)O (stereo not shown) [Compound 106] | 3.4 | 3.2
4 | Cc1cc(SC(Cc2ccccc2)c2ccc(-c3ccc(C(F)(F)F)cc3)cc2)ccc1OCC(=O)O (stereo not shown) [Compound S14] | 3.9 | 3.6

Same assay, conditions: treated in pregnancy, 10 mg/Kg/day

Row | SMILES | increasing rate (treatment group/control group), length [times] | increasing rate (treatment group/control group), time [times]
5 | Cc1cc(SC(Cc2ccccc2)c2ccc(-c3ccc(C(F)(F)F)cc3)nc2)ccc1OCC(=O)O (stereo not shown) [Compound 106] | 2.2 | 2.1
6 | Cc1cc(SC(Cc2ccccc2)c2ccc(-c3ccc(C(F)(F)F)cc3)cc2)ccc1OCC(=O)O (stereo not shown) [Compound S14] | 2.5 | 2.4

Molecular target: T1, hPPARγ (Homo sapiens, UniProt P37231)
T1 construct: Full length PPARs plasmid DNA; expressed in transfected cells; host or cells: CV-1 cells
T1 sequence (P37231 1-505): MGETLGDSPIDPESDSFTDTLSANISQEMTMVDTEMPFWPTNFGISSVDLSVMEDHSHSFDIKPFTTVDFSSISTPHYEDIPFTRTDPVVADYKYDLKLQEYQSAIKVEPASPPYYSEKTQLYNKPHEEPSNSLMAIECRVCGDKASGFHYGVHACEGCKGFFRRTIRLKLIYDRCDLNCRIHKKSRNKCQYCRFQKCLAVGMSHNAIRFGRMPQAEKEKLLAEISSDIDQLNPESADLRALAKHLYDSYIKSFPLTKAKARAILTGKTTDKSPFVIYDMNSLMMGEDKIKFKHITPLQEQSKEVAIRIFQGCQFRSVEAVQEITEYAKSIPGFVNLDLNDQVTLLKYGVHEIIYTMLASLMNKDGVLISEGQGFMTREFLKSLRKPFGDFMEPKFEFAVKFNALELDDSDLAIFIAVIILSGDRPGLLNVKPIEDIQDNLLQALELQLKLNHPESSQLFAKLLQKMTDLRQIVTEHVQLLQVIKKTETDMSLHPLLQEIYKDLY
Experiment: Transfection assay (luciferase reporter), PPARγ
Type: cell-based
Details: CV-1 cells, full length PPAR plasmid, 24 hours
Experimental: (§1) The PPARδ activity of the compound represented by formula (I) of the present invention was confirmed by transfection assay. In addition, the selectivity to PPAR subtypes, PPARα and PPARγ was examined. Cytotoxicity was tested by MTT assay and in vivo activity was investigated by animal experiment.
(§2) CV-1 cells were used in this assay. The cells were inoculated in a 96-well plate containing DMEM supplemented with 10% FBS, DBS (delipidated) and 1% penicillin/streptomycin and cultured in a 37° C., 5% CO2 incubator. The experiment was performed according to the steps of inoculation, transfection, sample treatment and confirmation. Particularly, CV-1 cells were inoculated in a 96 well-plate (5000 cells/well), followed by transfection 24 hours later. Full length PPARs plasmid DNA, reporter DNA confirming PPARs activity owing to its luciferase activity, β-galactosidase DNA providing information on transfection efficiency, and transfection reagent were used for the transfection. Samples were dissolved in dimethylsulfoxide (DMSO), which were treated to the cells via media at different concentrations. After culturing the cells in the incubator for 24 hours, the cells were lysed by using lysis buffer. Luciferase activity and β-galactosidase activity were measured with Luminometer and a microplate reader. The obtained values of luciferase were modified by the values of β-galactosidase. A graph was made with those values and EC50 was calculated.

Row | SMILES | EC50 hPPARγ
7 | Cc1cc(SC(Cc2ccccc2)c2ccc(-c3ccc(C(F)(F)F)cc3)nc2)ccc1OCC(=O)O (stereo not shown) [Compound 106] | ia
8 | Cc1cc(SC(Cc2ccccc2)c2ccc(-c3ccc(C(F)(F)F)cc3)cc2)ccc1OCC(=O)O (stereo not shown) [Compound S14] | ia

Molecular target: T2, hPPARα (Homo sapiens, UniProt Q07869)
T2 construct: Full length PPARs plasmid DNA; expressed in transfected cells; host or cells: CV-1 cells
T2 sequence (Q07869 1-468): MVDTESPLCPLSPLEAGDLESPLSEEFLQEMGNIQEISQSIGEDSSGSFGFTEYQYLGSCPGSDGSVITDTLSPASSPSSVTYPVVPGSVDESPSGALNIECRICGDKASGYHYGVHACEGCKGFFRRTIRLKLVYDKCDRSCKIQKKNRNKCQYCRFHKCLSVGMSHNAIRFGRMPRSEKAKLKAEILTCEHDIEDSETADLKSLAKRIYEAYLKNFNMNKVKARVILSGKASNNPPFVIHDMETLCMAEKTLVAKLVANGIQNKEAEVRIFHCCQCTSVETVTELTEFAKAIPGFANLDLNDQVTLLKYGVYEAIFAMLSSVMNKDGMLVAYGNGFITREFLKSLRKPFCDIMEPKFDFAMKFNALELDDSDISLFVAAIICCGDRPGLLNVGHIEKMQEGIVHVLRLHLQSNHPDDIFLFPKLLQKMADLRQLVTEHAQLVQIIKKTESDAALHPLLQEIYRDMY
Experiment: Transfection assay (luciferase reporter), PPARα
Type: cell-based
Details: CV-1 cells, full length PPAR plasmid, 24 hours
Experimental: as §1, §2

Row | SMILES | EC50 hPPARα
9 | Cc1cc(SC(Cc2ccccc2)c2ccc(-c3ccc(C(F)(F)F)cc3)nc2)ccc1OCC(=O)O (stereo not shown) [Compound 106] | ia
10 | Cc1cc(SC(Cc2ccccc2)c2ccc(-c3ccc(C(F)(F)F)cc3)cc2)ccc1OCC(=O)O (stereo not shown) [Compound S14] | ia

Tested on: not listed separately
Experiment: Obesity inhibitory effect, high-fat feed mice
Type: in vivo, C57BL/6 mice
Details: 10 mg/kg/day oral, 60 days, feeds containing 35% fat
Experimental: Obesity Inhibitory Effect
An animal test using mice was performed to confirm the in vivo effect of the compound of the present invention. C57BL/6 (SLC Co.) mice at 8 weeks were used. To induce obesity, feeds containing 35% fat were given. While feeding such high-fat feeds for 60 days, vehicle, S14, S46 and S106 (10 mg/kg/day) were orally administered.

Row | SMILES | weight increase compared with the vehicle group [%]
11 | Cc1cc(SC(Cc2ccccc2)c2ccc(-c3ccc(C(F)(F)F)cc3)nc2)ccc1OCC(=O)O (stereo not shown) [Compound 106] | 37
12 | Cc1cc(SC(Cc2ccccc2)c2ccc(-c3ccc(C(F)(F)F)cc3)cc2)ccc1OCC(=O)O (stereo not shown) [Compound S14] | 31

Tested on: not listed separately
Experiment: Morris water maze test in LPS brain disease animal model
Type: in vivo, C57BL/6 mice
Details: Exercise (X)
Experimental: The therapeutic effect of the compound of the present invention on dementia and Parkinson's disease based on the memory improving effect thereof was investigated using brain disease animal model (C57BL/6 mice at 10 weeks). First, LPS was injected into the mouse brain to construct brain disease animal model. The mice were divided into four groups according to the administration and exercise. The exercise was performed with treadmill at the speed of 2 meter/min for the first 5 minutes, at 5 meter/min for 5 minutes, at 8 meter/min for 5 minutes and at 20 meter/min for the last 5 minutes. At the finish, Morris water maze test was performed. As a result, the therapeutic effect of the compound of the invention on dementia and Parkinson's disease via memory enhancement by the compound and exercise was confirmed in the brain disease animal model.

Row | SMILES | Results of water maze test [s]
13 | Cc1cc(SC(Cc2ccccc2)c2ccc(-c3ccc(C(F)(F)F)cc3)nc2)ccc1OCC(=O)O (stereo not shown) [Compound 106] | 23
14 | Cc1cc(SC(Cc2ccccc2)c2ccc(-c3ccc(C(F)(F)F)cc3)cc2)ccc1OCC(=O)O (stereo not shown) [Compound S14] | 21

Same assay, conditions: Exercise (◯)

Row | SMILES | Results of water maze test [s]
15 | Cc1cc(SC(Cc2ccccc2)c2ccc(-c3ccc(C(F)(F)F)cc3)nc2)ccc1OCC(=O)O (stereo not shown) [Compound 106] | 15
16 | Cc1cc(SC(Cc2ccccc2)c2ccc(-c3ccc(C(F)(F)F)cc3)cc2)ccc1OCC(=O)O (stereo not shown) [Compound S14] | 12

Tested on: not listed separately
Experiment: Muscle endurance test (treadmill) in adult mice with forced exercise
Type: in vivo, C57BL/6 mice
Details: 10 mg/kg oral, adult mice at 10 weeks, 30 days treadmill exercise
Experimental: Particularly, S14, S46 and S106 were orally administered to C57BL/6 mice at 10 weeks at the concentration of 10 mg/kg, during which the mice were forced to exercise. The exercise was performed with treadmill for […] once a day for 30 days, precisely at the speed of 2 meter/min for the first 5 minutes, at 5 meter/min for 5 minutes, at 8 meter/min for 5 minutes and at 20 meter/min for the last 5 minutes. At the finish, muscle endurance and muscle function enhancing effect was tested by using treadmill. As a result, the time (S14 treated group: 1.5 fold, S46 treated group: 1.3 fold, S106 treated group: 1.4 fold increased) and distance (S14 treated group: 1.5 fold, S46 treated group: 1.3 fold, S106 treated group: 1.4 fold increased) of exercise were all increased in the treatment group, compared with the control.

Row | SMILES | distance of exercise, increase compared with the control [fold] | time of exercise, increase compared with the control [fold]
17 | Cc1cc(SC(Cc2ccccc2)c2ccc(-c3ccc(C(F)(F)F)cc3)nc2)ccc1OCC(=O)O (stereo not shown) [Compound 106] | 1.4 | 1.4
18 | Cc1cc(SC(Cc2ccccc2)c2ccc(-c3ccc(C(F)(F)F)cc3)cc2)ccc1OCC(=O)O (stereo not shown) [Compound S14] | 1.5 | 1.5

Tested on: not listed separately
Experiment: Morris water maze test, treatment during pregnancy and lactation
Type: in vivo
Details: 10 mg/kg oral to pregnant mice in pregnancy and lactation; control 24.2 sec
Experimental: An animal test was performed to investigate the therapeutic effect of the compound of the present invention on dementia and Parkinson's disease based on the memory improving effect thereof. To confirm the effect of the compound of the present invention in the period of brain development, the compound was orally administered to pregnant mice at the concentration of 10 mg/kg in the periods of pregnancy and lactation. Morris water maze test was performed to detect any changes of the brain functions of the treatment group and the control group. This test facilitates the study of spatial learning and memory, which largely depends on the hippocampus in the brain.

Row | SMILES | average time spent to find the platform [s]
19 | Cc1cc(SC(Cc2ccccc2)c2ccc(-c3ccc(C(F)(F)F)cc3)nc2)ccc1OCC(=O)O (stereo not shown) [Compound 106] | 6.1
20 | Cc1cc(SC(Cc2ccccc2)c2ccc(-c3ccc(C(F)(F)F)cc3)cc2)ccc1OCC(=O)O (stereo not shown) [Compound S14] | 5.2

Molecular target: T3, hPPARδ (Homo sapiens, UniProt Q03181)
T3 construct: Full length PPARs plasmid DNA; expressed in transfected cells; host or cells: CV-1 cells
T3 sequence (Q03181 1-441): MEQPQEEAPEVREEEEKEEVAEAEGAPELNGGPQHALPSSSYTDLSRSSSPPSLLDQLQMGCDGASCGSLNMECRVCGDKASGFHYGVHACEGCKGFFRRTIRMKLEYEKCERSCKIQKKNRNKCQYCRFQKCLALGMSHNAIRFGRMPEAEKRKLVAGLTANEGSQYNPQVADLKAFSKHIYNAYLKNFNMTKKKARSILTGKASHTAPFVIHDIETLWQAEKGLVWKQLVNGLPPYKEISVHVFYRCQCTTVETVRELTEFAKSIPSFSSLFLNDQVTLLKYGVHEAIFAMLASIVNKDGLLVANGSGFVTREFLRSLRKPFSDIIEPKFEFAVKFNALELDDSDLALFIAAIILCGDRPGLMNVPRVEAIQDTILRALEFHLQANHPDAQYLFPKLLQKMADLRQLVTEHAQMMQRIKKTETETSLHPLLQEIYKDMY
Experiment: Transfection assay (luciferase reporter), PPARδ
Type: cell-based
Details: CV-1 cells, full length PPAR plasmid, 24 hours
Experimental: as §1, §2

Row | SMILES | EC50 [nM]
21 | Cc1cc(SC(Cc2ccccc2)c2ccc(-c3ccc(C(F)(F)F)cc3)nc2)ccc1OCC(=O)O (stereo not shown) [Compound 106] | 3.2
22 | Cc1cc(SC(Cc2ccccc2)c2ccc(-c3ccc(C(F)(F)F)cc3)cc2)ccc1OCC(=O)O (stereo not shown) [Compound S14] | 2.6

Tested on: not listed separately
Experiment: GTT (glucose tolerance test), diabetes improving effect
Type: in vivo, mice
Details: 10 mg/Kg/day oral, 57 days
Experimental: Diabetes Improving Effect
GTT (glucose tolerance test) was performed to confirm the diabetes improving effect of the compound of the present invention. Glucose (1.5 g/Kg) was intra-abdominally administered to the mice pre-treated orally with samples for 57 days. Blood glucose was measured every hour. Fasting blood glucose was lower in the S14, S46 and S106 (10 mg/Kg/day) treated groups than in control. […] In the meantime, the blood glucose level was not recovered to normal in the vehicle treated group even after 120 minutes.

Row | SMILES | fasting blood glucose versus control
23 | Cc1cc(SC(Cc2ccccc2)c2ccc(-c3ccc(C(F)(F)F)cc3)nc2)ccc1OCC(=O)O (stereo not shown) [Compound 106] | lower
24 | Cc1cc(SC(Cc2ccccc2)c2ccc(-c3ccc(C(F)(F)F)cc3)cc2)ccc1OCC(=O)O (stereo not shown) [Compound S14] | lower

Same assay, conditions: 10 mg/Kg/day oral, GTT

Row | SMILES | diabetes improving effect
25 | Cc1cc(SC(Cc2ccccc2)c2ccc(-c3ccc(C(F)(F)F)cc3)nc2)ccc1OCC(=O)O (stereo not shown) [Compound 106] | had diabetes improving effect
26 | Cc1cc(SC(Cc2ccccc2)c2ccc(-c3ccc(C(F)(F)F)cc3)cc2)ccc1OCC(=O)O (stereo not shown) [Compound S14] | had diabetes improving effect

Reference: US8519145B2, “Aryl compounds as PPAR ligands and their use” (Seoul National University Industry Foundation, priority 2006, dated 2013)
